Measurements published in ChEMBL document CHEMBL1133062, “The synthesis and in vitro cytotoxic studies of novel bis-naphthalimidopropyl polyamine derivatives” (2000).

Legend:
Assay type in all cases: functional
[1] = Mean value for over all cell lines tested
NCI-H522 = assay: The compound was tested for its cytotoxic activity against the following non small cell lung cancer cell lines NCI-H522; settings: Homo sapiens
NCI/ADR-RES = assay: The compound was tested for its cytotoxic activity against the following breast cancer cell lines NCI / ADR-RES; settings: Homo sapiens
CNS carcinoma cell = assay: The compound was tested for its growth inhibitory activity against CNS cancer cell line; settings: Homo sapiens
UO-31 = assay: The compound was tested for its cytotoxic activity against the following renal cancer cell lines UO-31; settings: Homo sapiens
786-0 = assay: The compound was tested for its cytotoxic activity against the following renal cancer cell lines 786-0; settings: Homo sapiens
Breast carcinoma cell = assay: The compound was tested for its growth inhibitory activity against breast cancer cell line; settings: Homo sapiens
Prostatic carcinoma cell = assay: The compound was tested for its growth inhibitory activity against prostate cancer cell line; settings: Homo sapiens
SW-620 = assay: The compound was tested for its cytotoxic activity against the following colon cancer cell lines SW-620; settings: Homo sapiens
Lung cancer cell line = assay: The compound was tested for its growth inhibitory activity against non small cell lung cancer cell line; settings: Homo sapiens
SK-OV-3 = assay: The compound was tested for its cytotoxic activity against the following ovarian cancer cell lines SK-OV-3; settings: Homo sapiens
HL-60 = assay: The compound was tested for its growth inhibitory activity against […] cancer cell line HL60-TB; settings: Homo sapiens
Renal cancer cell line = assay: The compound was tested for its growth inhibitory activity against renal cancer cell line; settings: Homo sapiens
IGROV-1 = assay: The compound was tested for its cytotoxic activity against the following ovarian cancer cell lines IGROVI; settings: Homo sapiens
SF-268 = assay: The compound was tested for its cytotoxic activity against the following CNS cancer cell lines SF-268; settings: Homo sapiens
Melanoma cell = assay: The compound was tested for its growth inhibitory activity against melanoma, human cancer cell line
SF-295 = assay: The compound was tested for its cytotoxic activity against the following CNS cancer cell lines SF-295; settings: Homo sapiens
Hs-578T = assay: The compound was tested for its cytotoxic activity against the following breast cancer cell lines HS 578T; settings: Homo sapiens
Ovarian carcinoma cell = assay: The compound was tested for its growth inhibitory activity against ovarian cancer cell line; settings: Homo sapiens
HCT-15 = assay: The compound was tested for its cytotoxic activity against the following colon cancer cell lines HCT-15; settings: Homo sapiens
EKVX = assay: The compound was tested for its cytotoxic activity against the following non small cell lung cancer cell lines EKVX; settings: Homo sapiens
Colon carcinoma cell = assay: The compound was tested for its growth inhibitory activity against colon cancer cell line; settings: Homo sapiens
[2] = system: Panel leukemia (Carcinoma cell lines); assay: The compound was tested for its growth inhibitory activity against leukemia cell line; settings: Homo sapiens
K562 = assay: The compound was tested for its cytotoxicity against the following leukemia cell line K-562; settings: Homo sapiens

Structure (SMILES)	mean GI50 [1]	GI50 (NCI-H522)	GI50 (NCI/ADR-RES)	GI50 (CNS carcinoma cell)	GI50 (UO-31)	GI50 (786-0)	GI50 (Breast carcinoma cell)	GI50 (Prostatic carcinoma cell)	GI50 (SW-620)	GI50 (Lung cancer cell line)	GI50 (SK-OV-3)	GI50 (HL-60)	GI50 (Renal cancer cell line)	GI50 (IGROV-1)	GI50 (SF-268)	GI50 (Melanoma cell)	GI50 (SF-295)	GI50 (Ovarian carcinoma cell)	GI50 (Colon carcinoma cell)	GI50 [2]	further results
Br.Br.O=C1c2cccc3cccc(c23)C(=O)N1CCCNCCCCNCCCN1C(=O)c2cccc3cccc(c23)C1=O	580 nM	13 nM	13100 nM	290 nM	1910 nM	24 nM	2260 nM	130 nM	37 nM	530 nM	722 nM	222 nM	570 nM	82 nM	29 nM	440 nM	488 nM	340 nM	590 nM	80 nM	GI50 (Hs-578T): 65 nM; GI50 (HCT-15): 2660 nM; GI50 (EKVX): 1370 nM; GI50 (K562): 12 nM
Br.Br.Br.Br.O=C1c2cccc3cccc(c23)C(=O)N1CCCNCCCNCCCCNCCCNCCCN1C(=O)c2cccc3cccc(c23)C1=O	4310 nM	825 nM	15100 nM	4070 nM	10800 nM	555 nM	4490 nM	3460 nM	1160 nM	3510 nM	10800 nM	33 nM	7430 nM	856 nM	722 nM	4040 nM	5350 nM	6120 nM	4230 nM	1430 nM	GI50 (Hs-578T): 630 nM; GI50 (HCT-15): 12800 nM; GI50 (EKVX): 4500 nM; GI50 (K562): 3600 nM
Br.Br.O=C1c2cccc3cccc(c23)C(=O)N1CCCNOCCONCCCN1C(=O)c2cccc3cccc(c23)C1=O	68600 nM	–	–	65900 nM	–	–	77600 nM	77600 nM	–	72600 nM	–	–	65400 nM	–	–	78000 nM	–	81000 nM	73200 nM	25700 nM	–
Br.Br.Br.O=C1c2cccc3cccc(c23)C(=O)N1CCCNCCCCNCCCNCCCN1C(=O)c2cccc3cccc(c23)C1=O	1420 nM	30 nM	19500 nM	1160 nM	10600 nM	185 nM	3490 nM	460 nM	449 nM	580 nM	1310 nM	156 nM	2490 nM	267 nM	111 nM	1170 nM	4780 nM	790 nM	2350 nM	250 nM	GI50 (Hs-578T): 44 nM; GI50 (HCT-15): 10900 nM; GI50 (EKVX): 1050 nM; GI50 (K562): 1170 nM
